Experimental data published in patent US20170165247A1, “CRYSTALLINE COMPOUNDS OF DABIGATRAN ETEXILATE” (OLON S.p.A., priority 2014, published 2017).

Assays:
[1] = Kinetic dissolution of tablet in phosphate buffer pH 4.5; format: physicochemical; details: for Average Conc.: tablet dissolution
Procedure: Kinetic Dissolution Experimental Conditions for Tablet Dissolution Dissolution Medium: […] Temperature: 37±0.5° C. Volume: 80 mL Time: 2 hrs Sample: Tablet (weight 200 mg) Stirring: Paddle 100 rpm Sampling time: 5 min, 15 min, 25 min, 35 min, 45 min, 60 min and 120 min. Repetitions: 2 for each experiment At the time fixed, withdraw 3 mL from each vessel. Reinstate the withdrawn volume. Filter each solution with 0.20 μm filter, discarding the first 1 mL. […] Each withdrawal was analyzed without further dilution. The sample was analyzed using the chromatographic conditions reported herein.

[2] = Thermodynamic solubility test in buffer solution (HPLC); format: physicochemical; details: buffer pH 4.5, 37° C., 24 hours
Procedure: The solubility tests were performed in a buffer solution at ph 4.5 and compared with the solubility data of dabigatran etexilate mesylate (commercial form).
Thermodynamic Solubility Tests
The sample (approx. 50 mg) was weighted in a vial and left under magnetic stirring (approx. 300 rpm) in approx. 2 mL of buffer solution at 37° C. for 24 hours. The experiments were carried out at pH 4.5 and pH 6.8. The suspensions were filtered with 0.45 μm filter and analyzed by HPLC method previously reported. From the obtained area an opportune dilution of the sample was performed to obtain a value consistent with the Calibration Curve. Every diluted sample was analyzed by HPLC and the results were interpolated by the calibration curve.
Each experiment was replicated twice.

| Compound | Average Conc. ([1]; pH 4.5, time 5 min) | Average Conc. ([1]; pH 4.5, time 15 min) | Average Conc. ([1]; pH 4.5, time 25 min) | Average Conc. ([1]; pH 4.5, time 35 min) | Average Conc. ([1]; pH 4.5, time 45 min) | Average Conc. ([1]; pH 4.5, time 60 min) | Average Conc. ([1]; pH 4.5, time 120 min) | dissolution rate compared with the mesylate salt (in words) ([1]; kinetic dissolution, phosphate buffer pH 4.5, 37° C.) | dissolution rate, times higher than the mesylate derivative ([1]; tablet, phosphate buffer pH 4.5, 37° C., paddle 100 rpm, compared with mesylate) | Average Conc. [2] |
| --- | --- | --- | --- | --- | --- | --- | --- | --- | --- | --- |
| Gallate | – | – | – | – | – | – | – | – | – | 0.40 µg/mL |
| Dabigatran Etexilate Orotate Anhydrous Form a (Dabigatran/Orotic Acid 1/1 Mol/Mole) | – | – | – | – | – | – | – | comparable | more than 8.7 times | – |

Continued, in another order:

| Average Conc. ([1]; pH 4.5, time 5 min) | Average Conc. ([1]; pH 4.5, time 15 min) | Average Conc. ([1]; pH 4.5, time 25 min) | Average Conc. ([1]; pH 4.5, time 35 min) | Average Conc. ([1]; pH 4.5, time 45 min) | Average Conc. ([1]; pH 4.5, time 60 min) | Average Conc. ([1]; pH 4.5, time 120 min) | dissolution rate compared with the mesylate salt (in words) ([1]; kinetic dissolution, phosphate buffer pH 4.5, 37° C.) | dissolution rate, times higher than the mesylate derivative ([1]; tablet, phosphate buffer pH 4.5, 37° C., paddle 100 rpm, compared with mesylate) | Compound | Average Conc. [2] |
| --- | --- | --- | --- | --- | --- | --- | --- | --- | --- | --- |
| 10.01 | 28.10 | 44.94 | 62.45 | 75.18 | 90.21 | 106.50 | – | – | CCCCCCOC(=O)N=C(N)c1ccc(NCc2nc3cc(C(=O)N(CCC(=O)OCC)c4ccccn4)ccc3n2C)cc1.O=C(O)c1cc(O)c(O)c(O)c1 [Dabigatran/gallate 1/1] | – |
| 8.76 | 11.06 | 12.26 | 13.74 | 15.52 | 17.21 | 28.89 | – | – | CCCCCCOC(=O)N=C(N)c1ccc(NCc2nc3cc(C(=O)N(CCC(=O)OCC)c4ccccn4)ccc3n2C)cc1.O=C(O)c1cc(=O)[nH]c(=O)[nH]1 [Dabigatran/orotate 1/1] | – |
| 6.86 | 9.09 | 11.40 | 13.28 | 15.96 | 18.55 | 26.44 | – | – | CCCCCCOC(=O)NC(=N)c1ccc(NCc2nc3cc(C(=O)N(CCC(=O)OCC)c4ccccn4)ccc3n2C)cc1.CS(=O)(=O)O [Dabigatran/mesylate 1/1] | – |
